# According to paper PMC6680932, “Structure–Antioxidant–Antiproliferative Activity Relationships of Natural C7 and C7–C8 Hydroxylated Flavones and Flavanones” (Antioxidants, 2019):
# Where two headings read alike, the source gives them in different places.
# Legend:
# [1] = tested on: MV-4-11 (biphenotypic B myelomonocytic leukemia); assay: Antiproliferative activity in vitro, MTT assay; type: cell-based, human; conditions: read-out: IC50 ± SD MV-4-11
# [2] = tested on: HLMEC (lung microvascular endothelial cells); assay: Antiproliferative activity in vitro, SRB assay; type: cell-based, human; conditions: 72 h exposure, SRB, normal cell line, read-out: IC50 ± SD HLMEC
# Experimental: (§1) The antiproliferative studies were performed in vitro using human cancer cell lines—MV-4-11 (biphenotypic B myelomonocytic leukemia), MCF7 (breast carcinoma), LoVo (colon cancer), LoVo/DX (colon cancer doxorubicin-resistant), and DU 145 (prostate cancer)—and normal human cell lines—MCF 10A (breast cells) and HLMEC (lung microvascular endothelial cells). The cell lines MV-4-11, LoVo, DU 145, and MCF 10A were obtained from the American Type Culture Collection (Rockville, Maryland, USA), MCF7 from the European Collection of Authenticated Cell Cultures (ECACC, Salisbury, UK), LoVo/DX courtesy of Professor E. Borowski (Technical University of Gdansk, Poland), and HLMECs (which had been already immortalized by transfection with pSV3-neoplasmid containing large T-antigen gene) were the kind gift of Professor Claudine Kieda (Center for Molecular Biophysics, Orleans, France). The cell lines are being maintained in the Hirszfeld Institute of Immunology and Experimental Therapy, Polish Academy of Sciences (HIIET, PAS), Wroclaw, Poland. All cell lines were grown at 37 °C with 5% CO2 humidified atmosphere. The MV-4-11 cells were cultured in RPMI 1640 medium with GlutaMAX (Gibco, Scotland, UK), supplemented with 1 mM sodium pyruvate and 10% fetal bovine serum (both from Sigma-Aldrich, Poznan, Poland). The MCF7 cells were cultured in Eagle medium (HIIET, PAS, Wroclaw, Poland) supplemented with 2 mM L-glutamine, 10% fetal bovine serum, 1% nonessential amino acid solution, and 0.8 mg/L of insulin (all from Sigma-Aldrich, Poznan, Poland). The LoVo and LoVo/DX cells were cultured in a 1:1 (v/v) mixture of RPMI 1640 and Opti-MEM (both HIIET, PAS, Wroclaw, Poland), supplemented with 1 mM sodium pyruvate, 2 mM L-glutamine, and 5% fetal bovine serum (all from Sigma-Aldrich, Poznan, Poland). For LoVo/DX cells, additionally 10 µg/100 mL of doxorubicin (Accord Healthcare) was added to the medium. DU 145 cells were cultured in Eagle medium (HIIET, PAS, Wroclaw, Poland) supplemented with 1 mM sodium pyruvate, 4 mM L-glutamine, and 10% fetal bovine serum (all from Sigma-Aldrich, Poznan, Poland). The MCF 10A cells were cultured in the F-12 nutrient mixture (Gibco, Scotland, UK), supplemented with 5% horse serum (Gibco, Scotland, UK), 0.05 μg/mL of cholera toxin (Vibrio cholerae), 0.5 μg/mL of hydrocortisone, 10 μg/mL of insulin, and 20 ng/mL of human epidermal growth factor (all from Sigma-Aldrich, Poznan, Poland). The HLMEC cells were cultured in the RPMI 1640 medium (HIIET, PAS, Wroclaw, Poland) with the addition of 2 mM L-glutamine (Sigma-Aldrich, Poznan, Poland) and 10% fetal bovine serum (GE Healthcare). All culture media were supplemented with 100 units/mL penicillin (Polfa Tarchomin S.A., Warsaw, Poland) and 100 µg/mL streptomycin (Sigma-Aldrich, Poznan, Poland). Twenty-four hours before addition of the tested agents, the cells were plated in 96-well plates (Sarstedt, Germany) at a density of 1 × 10^4 (1 × 10^3 for HLMEC and 0.75 × 10^4 for MCF7) cells per well in 100 μL of culture medium.
# (§2) Tested compounds were dissolved in DMSO and then diluted in a 1:1 (v/v) mixture of RPMI 1640 (HIIET, PAS, Wroclaw, Poland) and Opti-MEM (Gibco, Scotland, UK) medium supplemented with 2 mM L-glutamine (Sigma-Aldrich, Poznan, Poland), 5% fetal bovine serum (GE Healthcare), 100 units/mL penicillin (Polfa Tarchomin S.A., Warsaw, Poland), and 100 µg/mL streptomycin (Sigma-Aldrich, Poznan, Poland). The antiproliferative effects of the flavonoids were examined after 72 h of exposure of the cultured cells to varying concentrations of the tested agents (from 0.1 to 100 μg/mL) using the MTT (for MV-4-11 cells) or SRB assay described below. Cisplatin (chemotherapy drug used to treat a number of cancers) was used as a positive control. The results are presented as an inhibitory concentration 50 (IC50), which is the concentration of the tested agent that inhibits proliferation of the cell population by 50%. IC50 values for each experiment were calculated separately. […]
# [3] = tested on: LoVo (colon cancer); assay: Antiproliferative activity in vitro, SRB assay; type: cell-based, human; conditions: 72 h exposure, SRB, read-out: IC50 ± SD LoVo
# Experimental: as §1, §2
# [4] = tested on: MCF 10A (breast cells); assay: Antiproliferative activity in vitro, SRB assay; type: cell-based, human; conditions: 72 h exposure, SRB, normal cell line, read-out: IC50 ± SD MCF 10A
# Experimental: as §1, §2
# [5] = tested on: MCF7 (breast carcinoma); assay: Antiproliferative activity in vitro, SRB assay; type: cell-based, human; conditions: 72 h exposure, SRB, read-out: IC50 ± SD MCF7
# Experimental: as §1, §2
# [6] = tested on: LoVo/DX (colon cancer doxorubicin-resistant); assay: Antiproliferative activity in vitro, SRB assay; type: cell-based, human; conditions: 72 h exposure, read-out: IC50 ± SD LoVo/DX
# [7] = tested on: DU 145 (prostate cancer); assay: Antiproliferative activity in vitro, SRB assay; type: cell-based, human; conditions: 72 h exposure, SRB, read-out: IC50 ± SD DU 145
# [8] = Stability of flavonoids in DMSO (control), HPLC; type: physicochemical; conditions: 3 h of incubation
# Experimental: (§3) Flavonoids were dissolved (as described in Section 2.4) to the concentration of 100 µg/mL. The solutions corresponding to the solutions before the administration to the cell cultures were incubated in 96-well plates for 3 h and transferred to microtubes containing 400 µL of cold methanol (−20 °C) and kept at −20 °C for 1 h. After centrifugation at 12,000× g for 10 min, samples were analyzed by HPLC. Control experiments were also carried out to determine the stability of flavonoids in DMSO under analogous conditions.
# [9] = Stability of flavonoids before administration to the cell cultures (diluted in RPMI 1640/Opti-MEM medium), HPLC; type: physicochemical; conditions: 100 µg/mL, medium with 2 mM L-glutamine, 5% fetal bovine serum, penicillin, streptomycin; 3 h incubation
# Experimental: Tested compounds were dissolved in DMSO and then diluted in a 1:1 (v/v) mixture of RPMI 1640 (HIIET, PAS, Wroclaw, Poland) and Opti-MEM (Gibco, Scotland, UK) medium supplemented with 2 mM L-glutamine (Sigma-Aldrich, Poznan, Poland), 5% fetal bovine serum (GE Healthcare), 100 units/mL penicillin (Polfa Tarchomin S.A., Warsaw, Poland), and 100 µg/mL streptomycin (Sigma-Aldrich, Poznan, Poland). The antiproliferative effects of the flavonoids were examined after 72 h of exposure of the cultured cells to varying concentrations of the tested agents (from 0.1 to 100 μg/mL) using the MTT (for MV-4-11 cells) or SRB assay described below. Cisplatin (chemotherapy drug used to treat a number of cancers) was used as a positive control. The results are presented as an inhibitory concentration 50 (IC50), which is the concentration of the tested agent that inhibits proliferation of the cell population by 50%. IC50 values for each experiment were calculated separately.
# as §3
# [10] = ABTS radical cation decolorization assay; conditions: 6 min incubation, 734 nm; mean ± SD
# Experimental: (§4) The antioxidant capacity of flavonoids was measured in three separate tests: ABTS, DPPH, and ferric ion reducing antioxidant power (FRAP) assays (ABTS, DPPH, and FRAP reagents from Sigma-Aldrich). All tested compounds were dissolved in DMSO. All determinations were performed in triplicate. Standard curves were prepared for all assays using different concentrations of Trolox (6-hydroxy-2,5,7,8-tetramethylchroman-2-carboxylic acid) (Sigma-Aldrich). Trolox is a water-soluble analogue of vitamin E with high antioxidant activity, commonly used as a control and a reference in studies of antioxidant activity. The results were expressed as the equivalent of μmol Trolox per μmol of the test compound. The absorbance was measured using a UV-2401 PC spectrophotometer (Shimadzu, Kyoto, Japan). Concentrations of the tested samples were in the range from 50 µg/mL to 10 mg/mL.
# The radical cation scavenging capacity of the tested compounds was examined against ABTS^+ (2,2’-azino-bis(3-ethylbenzo-thiazoline-6-sulfonic acid) according to the procedure described by Re et al. with some modifications. The test sample (30 μL) of known concentration was mixed in a polystyrene cuvette with 3 mL of ABTS solution with a measured absorption of 0.700 at a wavelength of λ = 734 nm. After 6 min of incubation, the absorption of samples was recorded. The ABTS reagent was freshly prepared before each experiment.
# [11] = DPPH free radical scavenging activity assay; conditions: 10 min, 517 nm; mean ± SD
# Experimental: as §4
# The DPPH (2,2-diphenyl-1-picrylhydrazyl) radical scavenging activity of samples was determined according to the method described by Yen and Chen with some modifications. Samples (0.1 mL) of known concentration were mixed in polystyrene cuvettes with 2 mL of 0.04 mM DPPH in ethanol and 0.4 mL of ethanol. The absorbance was measured after 10 min at λ = 517 nm. The DPPH reagent was freshly prepared before each experiment.
# [12] = FRAP (ferric ion reducing antioxidant power) assay; conditions: 10 min, 593 nm; mean ± SD
# Experimental: as §4
# The FRAP method is based on measuring the ability of antioxidants to reduce ferric 2,4,6-tris(2-pyridyl)-1,3,5-triazine [Fe(III)-TPTZ] in the blue colored ferrous form, which absorbs light at λ = 593 nm. The Fe(III)-TPTZ reagent was prepared as a mixture of acetate buffer (pH 3.6), 10 mM TPTZ in 40 mM HCl, and 20 mM FeCl3 in the ratio of 10:1:1 (v/v/v). The FRAP reagent was freshly prepared before each experiment. The samples (0.1 mL) were mixed in polystyrene cuvettes with 3 mL of ferric complex and 0.9 mL of distilled water. The absorbance was measured after 10 min at λ = 593 nm.
# [13] = Homo sapiens, MV4-11, 72 h exposure
Compound,IC50 ([1]; 72 h exposure),IC50 [2],IC50 [3],IC50 [4],IC50 [5],IC50 [6],IC50 [7],compound observed after incubation in DMSO [8],stability after dilution with 1:1 RPMI 1640/Opti-MEM medium [9],TEAC ABTS [10],TEAC DPPH [11],"IC50 [1, 13]","IC50 ([2]; Homo sapiens, Endothelial cell)","IC50 ([3]; Homo sapiens, LoVo, 72 h)","IC50 ([4]; Homo sapiens, MCF-10A)","IC50 ([5]; Homo sapiens, MCF7)","IC50 ([6]; Homo sapiens, LoVo/DX)","IC50 ([7]; Homo sapiens, DU-145)",TEAC FRAP [12]
"N.N.[Cl][Pt][Cl] [Cisplatin, reference compound]",1.6 ± 0.33 µM,1.07 ± 0.05 µM,5.87 ± 1.72 µM,10.6 ± 1.17 µM,7.5 ± 1.32 µM,3.23 ± 0.77 µM,1.47 ± 0.12 µM,,,,,,,,,,,,
"O=C1C[C@@H](c2ccc(O)cc2)Oc2c(O)c(O)cc(O)c21 [Compound 14, 8-hydroxynaringenin]",,,,,,,,over 99%,complete decomposition,,,,,,,,,,
"O=C1C[C@@H](c2ccc(O)cc2)Oc2cc(O)c(O)c(O)c21 [Compound 15, 6-hydroxynaringenin]",,,,,,,,over 99%,complete decomposition,,,,,,,,,,
"O=C1C[C@@H](c2ccccc2)Oc2cc(O)cc(O)c21 [Compound 5, Pinocembrin]",,,,,,,,,,0.165 ± 0.009 µmol trolox per µmol of tested,0.005 ± 0.001 µmol trolox per µmol of tested,99.1 ± 34.1 µM,96.6 ± 7.23 µM,116 ± 10.6 µM,125 ± 5.77 µM,148 ± 6.57 µM,67 ± 15.8 µM,119 ± 22.4 µM,
"O=c1cc(-c2ccc(O)c(O)c2)oc2cc(O)cc(O)c12 [Compound 3, luteolin]",,,13.5 ± 0.65 µM,,,,,,,16.645 ± 0.897 µmol trolox per µmol of tested,10.50 ± 0.117 µmol trolox per µmol of tested,8.73 ± 2.23 µM,9.22 ± 0.64 µM,14 to 15 µM,33.1 ± 10.3 µM,25.5 ± 6.33 µM,13.7 ± 1.65 µM,21.9 ± 6.11 µM,17.686 ± 0.327 µmol trolox per µmol of tested
"COc1ccc([C@@H]2CC(=O)c3c(O)cc(O)cc3O2)cc1O [Compound 8, hesperetin]",,,,,,,,,,13.254 ± 0.123 µmol trolox per µmol of tested,0.098 ± 0.002 µmol trolox per µmol of tested,140 ± 12.9 µM,98.3 ± 7.62 µM,104 ± 5.55 µM,207 ± 23.4 µM,167 ± 13.1 µM,77.2 ± 19.4 µM,215 ± 32.1 µM,4.025 ± 0.175 µmol trolox per µmol of tested
